Data as given in patent US11891348B2, “Cycloheptylamine derivatives as anti-diabetic agents” (UNITED ARAB EMIRATES UNIVERSITY, priority 2020, dated 2024).
Entries after “also recorded” stand apart in the source; their conditions may differ. Where a name gives a salt, the structure may show the parent alone.

Columns and labels:
[1] = test system: βTC6 cells; test: Insulin secretion by βTC6 cells, high range insulin Sandwich ELISA kit; format: cell-based; conditions: for insulin secretion compared to the basal control: absence of glucose; for insulin secretion compared to basal insulin secretion: presence of 2.8 mM glucose, 10^−15, 10^−12, and 10^−9 M
Experimental: FIG. 2A is a bar graph showing the in vitro effects on insulin secretion of compound 2a at concentrations of 10^−15, 10^−12, and 10^−9 M, compared to control, in both the absence and presence of 2.8 mM glucose. Results are means of triplicates±SEM; * P<0.05, ** P<0.01, *** P<0.001, from relative basal control.
The secretion of insulin by βTC6 cells was measured using the high range insulin Sandwich ELISA kit. The 2.8 mM glucose gave a mild insulin response around 3000 pmol/l and was used in testing the effect of compounds 2a-d. […]

[2] = test system: STZ-induced diabetic rats; test: Fasting blood glucose (FBG) in Streptozotocin (STZ)-induced diabetic rats after oral administration; format: in vivo
Experimental: (§1) FIG. 1A is a bar graph showing in vivo anti-hyperglycemic effect on fasting blood glucose levels over time, ranging from 0 minute to 480 minutes, and at 1440 minutes, in STZ-induced diabetic rats, comparing a dose of 1.0 μM/kg compound 2a with control. Results are means±SEM; n=6 rats; * P<0.05, ** P<0.01, vs. STZ control.
as §1, with “1B” for “1A”, “2b” for “2a”
as §1, with “FIG. 1C” for “FIG. 1A”, “comparing an oral” for “comparing a”, “compound 2c” for “compound 2a”
as §1, with “FIG. 1D is a” for “FIG. 1A is a”, “from 0 minutes to 480” for “from 0 minute to 480”, “μM/kg compound 2d with control.” for “μM/kg compound 2a with control.”
These symptoms indicated the development of diabetes characterized by chronic and persistently elevated plasma glucose levels.
Compound 2a was orally administrated to the treated groups of diabetic rats at a dose of 1.0 μM/kg. Glucose levels in their blood were followed over 8.0 hours. […] Compounds 2b-d were orally administrated to the treated groups of diabetic rats at a dose of 1.0 μM/kg. Blood glucose levels were monitored at 0, 30 minutes, 60 minutes, 2 hours, 4 hours, 6 hours, 8 hours, and then again at 24 hours.

[3] = 10^−15, 10^−12, and 10^−9 M tested

melting point [°C] | SMILES | insulin secretion compared to the basal control [1, 3] | insulin secretion compared to basal insulin secretion [1] | also measured
139 to 141 | Nc1nccc(NC(=O)NC2CCCCCC2)n1 [compound 9c, 1-(2′-Aminopyrimidin-4′-yl)-3-cycloheptylurea] | not to a statistically significant degree | significant stimulation | –
– | NC1CCCCCC1 [compound 2a, Cycloheptanamine Hydrochloride] | significantly stimulated | – | duration of significant reduction in blood glucose levels ([2]; 1.0 μM/kg): at least 8 hours; time to significant reduction in blood glucose levels ([2]; 1.0 μM/kg): ≤ 1 h; reduction in blood glucose levels compared to control diabetic rats ([2]; oral dose of 1.0 μM/kg, followed over 8.0 hours, Hydrochloride): significant reduction; also recorded: reductions in blood glucose levels; insulin secretion compared to the basal control ([1]; concentrations of 10^−15 and 10^−12 M): significantly stimulated; insulin secretion compared to basal insulin secretion ([1]; Hydrochloride): stimulated insulin secretions significantly; stimulation of insulin production ([1]; summary statement, glucose condition not given): stimulation of insulin production
169 to 170 | O=C(Nc1cc(C(F)(F)F)cc(C(F)(F)F)c1)NC1CCCCCC1 [9a, 1-[3′,5′-Bis(trifluoromethyl)phenyl]-3-cycloheptylurea] | – | – | –
102 | c1cc(-c2cc[n+](C3CCCCCC3)cc2)ccn1 (as salt: chloride) [compound 6, 1-cycloheptyl-[4,4′-bipyridin]-1-ium chloride] | – | – | –
– | Cc1ccc(S(=O)(=O)NC(=O)NC2CCCCCC2)cc1 [compound 9f, N-(Cycloheptylcarbamoyl)-4-methylbenzenesulfonamide] | not to a statistically significant degree | significant stimulation | –
– | N=C(N)NC1CCCCCC1 [compound 10, 1-Cycloheptylguanidine hydrochloride] | not to a statistically significant degree | significant stimulation | –
235 to 236 | Nc1ccc(S(=O)(=O)NC(=O)NC2CCCCCC2)cc1 [compound 9d, 4-Amino-N-(cycloheptylcarbamoyl)benzenesulfonamide] | not to a statistically significant degree | significant stimulation | –
106 | N=C(N)NC1CCCCCC1 (as salt: hydrochloride) [compound 10, 1-Cycloheptylguanidine hydrochloride] | – | – | –
232 | O=C(NC1CCCCCC1)C(=O)NC1CCCCCC1 [compound 8, N1,N2-dicycloheptyloxalamide] | – | – | –
283 | Cl.N=C(N)/N=C(\N)NC1CCCCCC1 [compound 11, (E)-Amino[(amino(cycloheptylamino)methylene)amino]methaniminium chloride] | not to a statistically significant degree | significant stimulation | –
